According to ChEMBL document CHEMBL3414430 (J Med Chem, 2015):
In brackets after ≈: the same amount, converted by molar mass. Activity calls are given as the source filed them. No cut-off for these calls is given here.

Tests used:
[1] = biological target: T1, Protein deacetylase HDAC6 (Homo sapiens, UniProt Q9UBN7)
T1 sequence (Q9UBN7 whole entry): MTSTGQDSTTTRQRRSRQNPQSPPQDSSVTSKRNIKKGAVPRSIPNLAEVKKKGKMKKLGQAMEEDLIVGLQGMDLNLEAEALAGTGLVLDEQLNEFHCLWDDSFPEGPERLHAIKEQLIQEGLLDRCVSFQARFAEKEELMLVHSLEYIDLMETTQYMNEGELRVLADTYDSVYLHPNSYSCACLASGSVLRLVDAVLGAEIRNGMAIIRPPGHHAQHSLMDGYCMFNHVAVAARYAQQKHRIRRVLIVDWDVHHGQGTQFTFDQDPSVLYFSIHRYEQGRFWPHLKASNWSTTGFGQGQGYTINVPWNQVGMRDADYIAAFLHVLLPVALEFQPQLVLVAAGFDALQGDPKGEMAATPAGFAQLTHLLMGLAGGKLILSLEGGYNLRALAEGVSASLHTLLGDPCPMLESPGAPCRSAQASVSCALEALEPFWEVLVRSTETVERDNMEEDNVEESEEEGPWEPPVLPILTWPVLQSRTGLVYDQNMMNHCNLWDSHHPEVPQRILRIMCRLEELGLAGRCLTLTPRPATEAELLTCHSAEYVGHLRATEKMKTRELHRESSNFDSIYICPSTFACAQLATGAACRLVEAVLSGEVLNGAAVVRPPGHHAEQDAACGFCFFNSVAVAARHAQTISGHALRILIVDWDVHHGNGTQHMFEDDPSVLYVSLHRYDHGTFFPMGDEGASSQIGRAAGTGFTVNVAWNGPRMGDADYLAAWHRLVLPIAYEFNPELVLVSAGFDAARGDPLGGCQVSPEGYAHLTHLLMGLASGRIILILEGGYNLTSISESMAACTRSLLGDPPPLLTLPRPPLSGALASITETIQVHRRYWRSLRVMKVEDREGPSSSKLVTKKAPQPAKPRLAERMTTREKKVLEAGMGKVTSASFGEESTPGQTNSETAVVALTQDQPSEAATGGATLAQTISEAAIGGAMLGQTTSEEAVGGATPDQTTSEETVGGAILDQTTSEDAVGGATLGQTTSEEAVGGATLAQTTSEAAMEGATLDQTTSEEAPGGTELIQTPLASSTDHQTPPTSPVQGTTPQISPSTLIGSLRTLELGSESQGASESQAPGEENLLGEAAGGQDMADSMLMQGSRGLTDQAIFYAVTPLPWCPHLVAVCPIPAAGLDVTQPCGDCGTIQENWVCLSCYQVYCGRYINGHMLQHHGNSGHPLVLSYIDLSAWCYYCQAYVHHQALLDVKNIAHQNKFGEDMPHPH
Description: Inhibition of HDAC6 (unknown origin) using RHKK(Ac)AMC as substrate

[2] = biological target: T2, Histone deacetylase 8 (Homo sapiens, UniProt Q9BY41)
T2 sequence (Q9BY41 whole entry): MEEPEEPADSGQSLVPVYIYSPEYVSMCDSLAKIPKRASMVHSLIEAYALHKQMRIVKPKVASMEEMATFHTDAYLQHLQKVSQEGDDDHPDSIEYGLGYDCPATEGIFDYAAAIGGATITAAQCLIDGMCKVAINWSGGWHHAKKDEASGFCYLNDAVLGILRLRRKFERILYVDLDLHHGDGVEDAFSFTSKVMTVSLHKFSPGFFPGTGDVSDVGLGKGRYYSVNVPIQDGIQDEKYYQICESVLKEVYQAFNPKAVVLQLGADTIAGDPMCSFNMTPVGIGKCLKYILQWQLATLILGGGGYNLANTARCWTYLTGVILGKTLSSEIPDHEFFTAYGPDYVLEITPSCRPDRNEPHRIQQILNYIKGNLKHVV
Description: Inhibition of HDAC8 (unknown origin) using RHK(Ac)K(Ac)AMC as substrate

[3] = biological target: Histone deacetylase 1 (Homo sapiens, UniProt Q13547)
Description: Inhibition of HDAC1 (unknown origin) using RHKK(Ac)AMC as substrate

[4] = Solubility of the compound in PBS measured after overnight incubation by LYSA assay; assay type: physicochemical
[5] = biological target: T1, Protein deacetylase HDAC6; remark: listed apart in the source
Description: Inhibition of HDAC6 in human A549 cells assessed as induction of tubulin acetylation after 17 to 18 hrs by ELISA

[6] = Plasma clearance in ICR mouse; assay type: ADME, organism-based
[7] = Half life in ICR mouse at 10 mg/kg, iv; assay type: ADME, organism-based; design: dose 10 mg/kg, route intravenous; details: in vivo
[8] = Oral bioavailability in ICR mouse at 50 mg/kg; assay type: ADME, organism-based; details: in vivo
[9] = Intrinsic clearance in mouse liver microsomes at 1 uM preincubated for 10 mins followed by NADPH addition measured over 30 mins by LC-MS/MS analysis; assay type: ADME; details: read-out: CLH
[10] = tested on: Mus musculus; experiment: AUC (0 to infinity) in ICR mouse at 10 mg/kg, iv; assay type: ADME, organism-based, Plasma; design: time infinity, dose 10 mg/kg, route intravenous; details: in vivo
[11] = Intrinsic clearance in human liver microsomes at 1 uM preincubated for 10 mins followed by NADPH addition measured over 30 mins by LC-MS/MS analysis; assay type: ADME; details: read-out: CLH
[12] = tested on: Mus musculus; experiment: AUC (0 to infinity) in ICR mouse at 50 mg/kg, po; assay type: ADME, organism-based, Plasma; design: time infinity, dose 50 mg/kg, route oral; details: in vivo
[13] = biological target: T3, Histone deacetylase 1/2/3/6 (Homo sapiens) (UniProt Q13547+O15379+Q9UBN7+Q92769); details: HeLa, at 10 µM
Description: Inhibition of HDAC1/HDAC2/HDAC3 in human HeLa cells assessed as induction of p21 gene expression at 10 uM after 15 hrs by luciferase reporter gene assay relative to HDAC1 inhibitor SNDX-275

[14] = biological target: T3, Histone deacetylase 1/2/3/6 (Homo sapiens); experiment: Inhibition of HDAC1/HDAC2/HDAC3 in human HeLa cells assessed as induction of p21 gene expression at 10 uM after 15 hrs by luciferase reporter gene assay; assay type: cell-based
[15] = Oral bioavailability in ICR mouse at 100 mg/kg; assay type: ADME, organism-based; details: in vivo
[16] = tested on: Mus musculus; experiment: AUC (0 to infinity) in ICR mouse at 100 mg/kg, po; assay type: ADME, organism-based, Plasma; design: time infinity, dose 100 mg/kg, route oral; details: in vivo
[17] = Cmax in ICR mouse at 100 mg/kg, po; assay type: ADME, organism-based; design: dose 100 mg/kg, route oral; details: in vivo
[18] = biological target: T3, Histone deacetylase 1/2/3/6 (Homo sapiens); experiment: Inhibition of HDAC1/HDAC2/HDAC3 in human HeLa cells assessed as induction of p21 gene expression at 3 to 10 uM after 15 hrs by luciferase reporter gene assay; assay type: cell-based

T3 sequence (O15379 whole entry, looked up, one chain of several): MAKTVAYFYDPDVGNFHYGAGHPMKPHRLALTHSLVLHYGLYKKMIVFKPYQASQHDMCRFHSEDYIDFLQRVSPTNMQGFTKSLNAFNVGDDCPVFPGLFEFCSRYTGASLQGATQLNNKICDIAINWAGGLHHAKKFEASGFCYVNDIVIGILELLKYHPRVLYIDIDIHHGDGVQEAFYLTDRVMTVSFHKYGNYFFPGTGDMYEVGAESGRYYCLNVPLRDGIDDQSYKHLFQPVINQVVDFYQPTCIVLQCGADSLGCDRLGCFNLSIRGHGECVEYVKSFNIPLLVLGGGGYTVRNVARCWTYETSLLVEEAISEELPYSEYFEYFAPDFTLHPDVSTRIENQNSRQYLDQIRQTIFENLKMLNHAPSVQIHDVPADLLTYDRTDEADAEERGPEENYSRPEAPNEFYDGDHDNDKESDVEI
T3 sequence (Q13547 whole entry, looked up, one chain of several): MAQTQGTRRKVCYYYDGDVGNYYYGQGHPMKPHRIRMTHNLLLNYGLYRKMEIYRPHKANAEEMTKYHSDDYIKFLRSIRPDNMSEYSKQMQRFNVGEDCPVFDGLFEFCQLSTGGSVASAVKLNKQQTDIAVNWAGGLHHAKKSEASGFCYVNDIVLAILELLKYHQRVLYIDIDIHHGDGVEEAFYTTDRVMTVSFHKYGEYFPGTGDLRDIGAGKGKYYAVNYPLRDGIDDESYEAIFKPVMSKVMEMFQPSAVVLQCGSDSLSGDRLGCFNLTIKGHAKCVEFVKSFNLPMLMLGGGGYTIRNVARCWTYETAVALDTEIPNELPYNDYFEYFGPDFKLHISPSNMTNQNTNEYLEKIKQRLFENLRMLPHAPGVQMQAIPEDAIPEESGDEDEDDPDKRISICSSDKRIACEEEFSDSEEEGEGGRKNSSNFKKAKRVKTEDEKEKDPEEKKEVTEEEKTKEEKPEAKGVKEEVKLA
T3 sequence (Q92769 whole entry, looked up, one chain of several): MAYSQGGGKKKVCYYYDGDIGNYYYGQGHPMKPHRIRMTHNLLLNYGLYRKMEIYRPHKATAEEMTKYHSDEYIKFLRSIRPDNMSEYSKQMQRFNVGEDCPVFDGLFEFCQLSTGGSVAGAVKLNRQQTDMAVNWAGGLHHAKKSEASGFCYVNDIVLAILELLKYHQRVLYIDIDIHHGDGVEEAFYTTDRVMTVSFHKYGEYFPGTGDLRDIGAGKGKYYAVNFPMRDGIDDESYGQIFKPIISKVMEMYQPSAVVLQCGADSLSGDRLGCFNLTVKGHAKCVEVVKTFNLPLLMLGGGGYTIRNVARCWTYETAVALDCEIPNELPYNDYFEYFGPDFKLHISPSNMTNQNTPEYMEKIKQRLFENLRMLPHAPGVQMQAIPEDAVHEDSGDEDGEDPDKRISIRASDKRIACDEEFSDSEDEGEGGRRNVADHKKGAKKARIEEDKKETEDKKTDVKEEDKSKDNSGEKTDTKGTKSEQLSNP
Chain of Histone deacetylase 1 (Q13547 whole entry): as the sequence (Q13547 whole entry, looked up, one chain of several) above

| Compound | IC50 [1] [µM] | IC50 [2] [µM] | IC50 [3] [µM] | solubility [4] [µg/mL] | EC50 [5] [µM] | other results |
| --- | --- | --- | --- | --- | --- | --- |
| CC1(Nc2ccc(C(=O)NO)cc2)CCN(c2ccccc2)C1=O (stereo unspecified) | 0.46 | 0.59 | > 100 | 415 (≈ 1280 µM) | 2.6 |  |
| O=C(NO)c1ccc2c(c1)C[C@H](Nc1nccc(-c3cccnc3)n1)CC2 |  |  |  |  |  | clearance [6]: 99 mL/min/kg |
| O=C(NO)c1ccc(NC2CCN(CCc3ccccc3)C2=O)cc1 (stereo unspecified) | 0.24 | 0.26 | 8.88 | 63 (≈ 186 µM) | 16.6 |  |
| O=C(CCCCCCC(=O)Nc1ccccc1)NO [VORINOSTAT] |  |  |  | > 385 |  | half-life [7]: 24 min; bioavailability [8]: 8%; CLint scaled at 1 µM [9]: 33 mL/min/kg; AUC [10]: 1486 µg/L/h; clearance [6]: 112 mL/min/kg; CLint scaled at 1 µM [11]: 0.1 mL/min/kg; AUC [12]: 619 µg/L/h |
| O=C(NO)c1ccc(OC2CCN(c3ccccc3)C2=O)cc1 (stereo unspecified) | 5.74 | 4.92 | > 100 | 203 (≈ 650 µM) | > 30 | inhibition [13]: inactive |
| N#Cc1ccc(N2CCC(Nc3ccc(C(=O)NO)cc3)C2=O)cc1 (stereo unspecified) | 0.1 | 0.16 | 12.8 | 28 (≈ 83.2 µM) | 3.1 |  |
| O=C(NO)c1ccc(NC2CCN(c3ccc(Cl)cc3)C2)cc1 (stereo unspecified) | 0.86 | 0.86 | 19.2 | < 1 |  | CLint scaled at 1 µM [9]: 53 mL/min/kg |
| CC1(Nc2ccc(C(=O)NO)cc2)CCN(c2ccc(Cl)cc2)C1=O (stereo unspecified) | 0.021 | 0.41 | 11.2 | 6 (≈ 16.7 µM) |  | inhibition [14]: Active |
| O=C(NO)c1ccc(NC2CCN(c3ccc(C(F)(F)F)cc3)C2=O)cc1 (stereo unspecified) | 0.25 | 0.11 | 26.7 | 43 (≈ 113 µM) | 16.2 |  |
| O=C(NO)c1ccc(NC2CCN(c3ccccc3Cl)C2=O)cc1 (stereo unspecified) | 0.36 | 0.15 | 21.8 | 24 (≈ 69.4 µM) |  |  |
| O=C(NO)c1ccc(NC2CCN(c3ccc(Cl)cc3)C2=O)cc1 (stereo unspecified) | 0.16 | 0.12 | 14.3 | < 1 |  | bioavailability [15]: 3%; AUC [16]: 278 µg/L/h; half-life [7]: 66 min; Cmax [17]: 57 ng/mL; inhibition [18]: inactive; CLint scaled at 1 µM [9]: 44 mL/min/kg; AUC [10]: 1065 µg/L/h; clearance [6]: 156 mL/min/kg; CLint scaled at 1 µM [11]: 8 mL/min/kg |
| CNc1ccc(C(=O)NO)cc1 | 1.77 | 0.94 | 52.3 |  | 19.2 | inhibition [13]: inactive |
| O=C(NO)c1ccc(NC2CCN(Cc3ccccc3)C2=O)cc1 (stereo unspecified) | 0.51 | 0.76 | 11.7 | > 385 |  |  |
| O=C(NO)c1ccc2c(c1)CC(Nc1nccc(-c3cccnc3)n1)CN2 (stereo unspecified) | 0.012 |  | 9.96 | 210 (≈ 579 µM) |  | inhibition [13]: inactive; clearance [6]: 74 mL/min/kg |
| O=C(NO)c1ccc(NC2CCN(c3ccc(Cl)cc3)C2=O)c(Cl)c1 (stereo unspecified) | 1.07 | 22.4 | 29.4 | < 1 | 17.4 |  |
| O=C(NO)c1ccc(NC2CCN(c3ccc(Cl)c(Cl)c3)C2=O)cc1 (stereo unspecified) | 0.063 | 0.16 | 15.9 | < 1 |  |  |
| O=C(NO)c1ccc(NC2CCN(c3cccc(Cl)c3)C2=O)cc1 (stereo unspecified) | 0.09 | 0.18 | 12.1 | 17 (≈ 49.2 µM) |  |  |
| CC1(Nc2ccc(C(=O)NO)cc2)CCN(c2ccc3ncccc3c2)C1=O (stereo unspecified) | 0.018 | 0.076 | 6.02 | 17 (≈ 45.2 µM) |  | inhibition [14]: Active |
| C[C@@]1(Nc2ccc(C(=O)NO)cc2)CCN(c2ccc(Cl)cc2)C1=O | 0.26 | 0.59 | 24.5 | 34 (≈ 94.5 µM) | 1.9 | inhibition [18]: inactive |
| O=C(NO)c1ccc(NC2CCN(c3ccc(Cl)cc3)C2=O)cc1F (stereo unspecified) |  |  |  | < 1 | 13.5 |  |
| O=C(NO)c1ccc(NC2CC(=O)N(c3ccccc3)C2)cc1 (stereo unspecified) | 2.26 | 6.25 | > 100 | > 350 | 18.1 | inhibition [13]: inactive |
| O=C(NO)c1ccc(NC2CCN(c3ccc4ccccc4c3)C2=O)cc1 (stereo unspecified) |  |  |  | < 1 | 1.1 |  |
| CN(C)CCOc1cccc(N2CCC(Nc3ccc(C(=O)NO)cc3)C2=O)c1 (stereo unspecified) |  |  |  | > 400 | 2 |  |
| CS(=O)(=O)c1ccc(N2CCC(Nc3ccc(C(=O)NO)cc3)C2=O)cc1 (stereo unspecified) | 0.14 | 0.12 | 17.1 | 97 (≈ 249 µM) |  |  |
| CN(c1ccc(C(=O)NO)cc1)C1CCN(c2ccccc2)C1=O (stereo unspecified) | 48.8 | 8.2 | > 100 |  | > 30 | inhibition [13]: inactive |
